Test results reported in ChEMBL document CHEMBL5329153, “Is structural hybridization invoking new dimensions for antimalarial drug discovery research?” (RSC Med Chem, 2023).
≈ marks a conversion by molar mass, not a printed value.

Tests used:
Assay type in all cases: functional, organism-based
Plasmodium falciparum [1] = assay: Antimalarial activity against Plasmodium falciparum 3D7 assessed as parasitic growth inhibition
Plasmodium falciparum [2] = assay: Antimalarial activity against Plasmodium falciparum K1 assessed as parasitic growth inhibition
Plasmodium falciparum [3] = assay: Antimalarial activity against Plasmodium falciparum Dd2 assessed as parasitic growth inhibition
Plasmodium falciparum [4] = assay: Antimalarial activity against Chloroquine sensitive Plasmodium falciparum D6 assessed as parasitic growth inhibition
Plasmodium falciparum [5] = assay: Antimalarial activity against Chloroquine resistant Plasmodium falciparum W2 assessed as parasitic growth inhibition
Plasmodium falciparum [6] = assay: Antimalarial activity against Plasmodium falciparum assessed as parasitic growth inhibition
Plasmodium falciparum [7] = assay: Antimalarial activity against Chloroquine resistant Plasmodium falciparum W2 assessed as parasitic growth inhibition measured after 48 hrs by fluorescence based assay; conditions: W2, 48 h

| Structure (SMILES) | IC50 (Plasmodium falciparum [4]) | IC50 (Plasmodium falciparum [5]) | other results |
| --- | --- | --- | --- |
| C[C@H]1[C@@H](OCc2cn(-c3cccc4cc(Cl)ccc34)nn2)O[C@@H]2O[C@]3(C)CC[C@H]4[C@H](C)CC[C@@H]1[C@@]24OO3 | – | – | EC50 (Plasmodium falciparum [1]): 9 nM; EC50 (Plasmodium falciparum [2]): 4.3 nM; EC50 (Plasmodium falciparum [3]): 5.9 nM |
| C[C@H]1[C@H](OC(=O)CCC(=O)OCCCCc2cn(-c3ccnc4cc(Cl)ccc34)nn2)O[C@@H]2O[C@]3(C)CC[C@H]4[C@H](C)CC[C@@H]1[C@@]24OO3 | – | – | EC50 (Plasmodium falciparum [1]): 6.2 nM; EC50 (Plasmodium falciparum [2]): 2.5 nM; EC50 (Plasmodium falciparum [3]): 4.4 nM |
| Cc1cc(NCCCNc2ccnc3cc(Cl)ccc23)nc(Nc2ccc(C(=O)N3CCSCC3)cc2)n1 | 32 nM | 33 nM | – |
| Cc1cc(Nc2ccc(C(=O)N3CCOCC3)cc2)nc(NCCCCNc2ccnc3cc(Cl)ccc23)n1 | 32 nM | 33 nM | – |
| CCNC(=S)NNC(=O)c1c(C)nc2ccccc2c1C | – | – | IC50 (Plasmodium falciparum [6]): 0.15 µg/mL (≈ 0.496 µM) |
| Cc1cc(NCCCCCCNc2ccnc3cc(Cl)ccc23)nc(Nc2ccc(C(=O)N3CCCC3)cc2)n1 | 32 nM | 33 nM | – |
| Cc1nc2ccccc2c(C)c1C(=O)NNC(=S)Nc1ccc(Cl)cc1 | – | – | IC50 (Plasmodium falciparum [6]): 0.15 µg/mL (≈ 0.39 µM) |
| COc1cccc(NC(=S)NNC(=O)c2c(C)nc3ccccc3c2C)c1 | – | – | IC50 (Plasmodium falciparum [6]): 0.1 µg/mL (≈ 0.263 µM) |
| Cc1nc2ccccc2c(C)c1C(=O)NNC(N)=S | – | – | IC50 (Plasmodium falciparum [6]): 0.19 µg/mL (≈ 0.693 µM) |
| C#CCCCC(C(=O)NCCOC(=O)CCC(=O)O[C@@H]1O[C@@H]2O[C@]3(C)CC[C@H]4[C@H](C)CC[C@@H]([C@H]1C)[C@@]24OO3)c1ccnc2cc(Cl)ccc12 (stereo partly specified) | – | – | EC50 (Plasmodium falciparum [1]): 6 nM; EC50 (Plasmodium falciparum [2]): 2.2 nM; EC50 (Plasmodium falciparum [3]): 4.8 nM |
| O=C(c1ccc(Nc2nccc(NCCCNc3ccnc4cc(Cl)ccc34)n2)cc1)N1CCCC1 | 32 nM | 33 nM | – |
| Cc1cc(NCCCNc2ccnc3cc(Cl)ccc23)nc(Nc2ccc(C(=O)N3CCCCC3)cc2)n1 | 32 nM | 33 nM | – |
| Cc1nc2ccccc2c(C)c1C(=O)NNC(=S)Nc1ccc(F)cc1F | – | – | IC50 (Plasmodium falciparum [6]): 0.26 µg/mL (≈ 0.673 µM) |
| Cc1cc(NCCCCNc2ccnc3cc(Cl)ccc23)nc(Nc2ccc(C(=O)N3CCCCC3)cc2)n1 | 32 nM | 33 nM | – |
| Cc1cc(Nc2ccc(C(=O)N3CCCC3)cc2)nc(NCCCCNc2ccnc3cc(Cl)ccc23)n1 | 32 nM | 33 nM | – |
| O=C(c1ccc(Nc2nccc(NCCCNc3ccnc4cc(Cl)ccc34)n2)cc1)N1CCCCC1 | 32 nM | 33 nM | – |
| O=C(c1ccc(Nc2nccc(NCCCCNc3ccnc4cc(Cl)ccc34)n2)cc1)N1CCCC1 | 32 nM | 33 nM | – |

| Structure (SMILES) | IC50 (Plasmodium falciparum [4]) | IC50 (Plasmodium falciparum [5]) | other results |
| --- | --- | --- | --- |
| O=C(c1ccc(Nc2nccc(NCCCNc3ccnc4cc(Cl)ccc34)n2)cc1)N1CCSCC1 | 32 nM | 33 nM | – |
| Cc1cc(NCCCCCCNc2ccnc3cc(Cl)ccc23)nc(Nc2ccc(C(=O)N3CCCCC3)cc2)n1 | 32 nM | 33 nM | – |
| Cc1cc(NCCCNc2ccnc3cc(Cl)ccc23)nc(Nc2ccc(C(=O)N3CCOCC3)cc2)n1 | 32 nM | 33 nM | – |
| O=C1c2cccc(N3CCCCC3)c2C(=O)N1CCCCNc1ccnc2cc(Cl)ccc12 | – | – | IC50 (Plasmodium falciparum [7]): 51 nM |
| Cc1nc(-c2ccccc2)c(-c2ccccc2)c2cc(-c3cn(CCOC(=O)CCC(=O)O[C@@H]4O[C@@H]5O[C@]6(C)CC[C@H]7[C@H](C)CC[C@@H]([C@H]4C)[C@@]57OO6)nn3)ccc12 | – | – | EC50 (Plasmodium falciparum [1]): 5.3 nM; EC50 (Plasmodium falciparum [2]): 3.3 nM; EC50 (Plasmodium falciparum [3]): 4.8 nM |
| Cc1cc(NCCCCNc2ccnc3cc(Cl)ccc23)nc(Nc2ccc(C(=O)N3CCSCC3)cc2)n1 | 32 nM | 33 nM | – |
| Cc1cc(Nc2ccc(C(=O)N3CCOCC3)cc2)nc(NCCCNc2ccnc3cc(Cl)ccc23)n1 | 32 nM | 33 nM | – |
| CN(C)c1nc(N)nc(NCCNc2ccnc3cc(Cl)ccc23)n1 | – | – | IC50 (Plasmodium falciparum [1]): 46.3 µg/mL (≈ 129 µM) |
| C[C@H]1[C@@H](OCCc2cn(-c3cccc4cc(Cl)ccc34)nn2)O[C@@H]2O[C@]3(C)CC[C@H]4[C@H](C)CC[C@@H]1[C@@]24OO3 | – | – | EC50 (Plasmodium falciparum [1]): 8.8 nM; EC50 (Plasmodium falciparum [2]): 2 nM; EC50 (Plasmodium falciparum [3]): 4.5 nM |
| Cc1cc(Nc2ccc(C(=O)N3CCCCC3)cc2)nc(NCCCCNc2ccnc3cc(Cl)ccc23)n1 | 32 nM | 33 nM | – |
| Cc1nc2ccccc2c(C)c1C(=O)NNC(=S)Nc1ccc([N+](=O)[O-])cc1 | – | – | IC50 (Plasmodium falciparum [6]): 0.25 µg/mL (≈ 0.632 µM) |
| CCCCc1nc(C)c2ccc(-c3cn(CCOC(=O)CCC(=O)O[C@@H]4O[C@@H]5O[C@]6(C)CC[C@H]7[C@H](C)CC[C@@H]([C@H]4C)[C@@]57OO6)nn3)cc2c1CCCC | – | – | EC50 (Plasmodium falciparum [1]): 9.2 nM; EC50 (Plasmodium falciparum [2]): 4.2 nM; EC50 (Plasmodium falciparum [3]): 10 nM |
| Cc1cc(Nc2ccc(C(=O)N3CCCC3)cc2)nc(NCCCNc2ccnc3cc(Cl)ccc23)n1 | 32 nM | 33 nM | – |
| Cc1cc(Nc2ccc(C(=O)N3CCCCC3)cc2)nc(NCCCNc2ccnc3cc(Cl)ccc23)n1 | 32 nM | 33 nM | – |
| C[C@H]1[C@@H](OCCCc2cn(-c3cccc4cc(Cl)ccc34)nn2)O[C@@H]2O[C@]3(C)CC[C@H]4[C@H](C)CC[C@@H]1[C@@]24OO3 | – | – | EC50 (Plasmodium falciparum [1]): 9.4 nM; EC50 (Plasmodium falciparum [2]): 3.8 nM; EC50 (Plasmodium falciparum [3]): 5.1 nM |
| C[C@H]1[C@H](OC(=O)CCC(=O)OCc2cn(-c3ccnc4cc(Cl)ccc34)nn2)O[C@@H]2O[C@]3(C)CC[C@H]4[C@H](C)CC[C@@H]1[C@@]24OO3 (racemic) | – | – | EC50 (Plasmodium falciparum [1]): 5.3 nM; EC50 (Plasmodium falciparum [2]): 1.8 nM; EC50 (Plasmodium falciparum [3]): 4.2 nM |
